Results: ChEMBL document CHEMBL3244014, “Selenium-sulfur analogues. 1. Synthesis and biochemical evaluation of selenotetramisole” (J Med Chem, 1978)
Active and inactive are the calls of the source. The rule behind the calls is not given here.

How the values were obtained:
[1] = biological target: T1, Alkaline phosphatase, tissue-nonspecific isozyme (Homo sapiens) (UniProt P05186); experiment: Inhibition of human serum containing 64% liver alkaline phosphatase using p-nitrophenyl phosphate as substrate at 8.7 x 10^-5 M up to 35 mins by spectrophotometry
T1 sequence (whole entry): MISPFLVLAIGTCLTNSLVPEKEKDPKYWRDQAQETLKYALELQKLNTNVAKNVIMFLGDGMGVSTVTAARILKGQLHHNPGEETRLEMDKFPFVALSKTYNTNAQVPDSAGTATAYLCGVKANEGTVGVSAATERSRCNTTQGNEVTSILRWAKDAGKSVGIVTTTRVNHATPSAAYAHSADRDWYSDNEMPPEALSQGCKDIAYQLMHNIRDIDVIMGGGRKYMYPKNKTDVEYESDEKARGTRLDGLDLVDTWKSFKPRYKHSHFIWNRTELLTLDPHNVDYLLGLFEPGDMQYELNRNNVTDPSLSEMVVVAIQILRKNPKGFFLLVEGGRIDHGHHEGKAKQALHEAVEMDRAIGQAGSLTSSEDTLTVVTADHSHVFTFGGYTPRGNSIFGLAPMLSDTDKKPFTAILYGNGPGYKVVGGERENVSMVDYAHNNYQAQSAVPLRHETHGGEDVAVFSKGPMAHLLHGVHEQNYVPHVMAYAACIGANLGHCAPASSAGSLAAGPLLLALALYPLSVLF

[2] = biological target: T2, Alkaline phosphatase, tissue-nonspecific isozyme (Bos taurus) (UniProt P09487); experiment: Inhibition of bovine liver alkaline phosphatase using p-nitrophenyl phosphate as substrate at 8.7 x 10^-5 M up to 35 mins by spectrophotometry
T2 sequence (whole entry): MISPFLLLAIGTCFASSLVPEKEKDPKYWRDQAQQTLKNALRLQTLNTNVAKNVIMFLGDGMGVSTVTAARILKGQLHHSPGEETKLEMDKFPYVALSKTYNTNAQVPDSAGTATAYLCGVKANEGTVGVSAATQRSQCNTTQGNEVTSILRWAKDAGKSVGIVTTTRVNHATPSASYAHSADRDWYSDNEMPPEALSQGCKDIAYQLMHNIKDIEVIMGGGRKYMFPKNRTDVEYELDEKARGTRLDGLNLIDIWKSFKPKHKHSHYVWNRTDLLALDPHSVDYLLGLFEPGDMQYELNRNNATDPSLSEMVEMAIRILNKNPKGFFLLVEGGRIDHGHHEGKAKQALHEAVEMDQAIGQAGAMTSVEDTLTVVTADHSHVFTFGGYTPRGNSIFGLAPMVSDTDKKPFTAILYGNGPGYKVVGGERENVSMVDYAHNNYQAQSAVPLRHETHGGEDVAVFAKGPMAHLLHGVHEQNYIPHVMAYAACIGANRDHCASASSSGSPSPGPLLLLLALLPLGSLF

[3] = biological target: Intestinal-type alkaline phosphatase (Homo sapiens) (UniProt P09923); experiment: Inhibition of human serum containing 26% intestine alkaline phosphatase using p-nitrophenyl phosphate as substrate at 8.7 x 10^-5 M up to 35 mins by spectrophotometry
[4] = biological target: Alkaline phosphatase, placental type (Homo sapiens) (UniProt P05187); experiment: Inhibition of human placenta alkaline phosphatase using p-nitrophenyl phosphate as substrate at 8.7 x 10^-5 M up to 35 mins by spectrophotometry
[5] = biological target: T1, Alkaline phosphatase, tissue-nonspecific isozyme (Homo sapiens); experiment: Inhibition of human serum containing 10% bone alkaline phosphatase using p-nitrophenyl phosphate as substrate at 8.7 x 10^-5 M up to 35 mins by spectrophotometry
[6] = biological target: T1, Alkaline phosphatase, tissue-nonspecific isozyme (Homo sapiens); experiment: Inhibition of human serum containing 40% bone alkaline phosphatase using p-nitrophenyl phosphate as substrate at 8.7 x 10^-5 M up to 35 mins by spectrophotometry
[7] = biological target: T1, Alkaline phosphatase, tissue-nonspecific isozyme (Homo sapiens); experiment: Inhibition of human serum containing 60% liver alkaline phosphatase using p-nitrophenyl phosphate as substrate at 8.7 x 10^-5 M up to 35 mins by spectrophotometry
[8] = biological target: T1, Alkaline phosphatase, tissue-nonspecific isozyme (Homo sapiens); experiment: Inhibition of human serum containing 92% liver alkaline phosphatase using p-nitrophenyl phosphate as substrate at 8.7 x 10^-5 M up to 35 mins by spectrophotometry
[9] = biological target: T1, Alkaline phosphatase, tissue-nonspecific isozyme (Homo sapiens); experiment: Inhibition of human serum containing 14% bone alkaline phosphatase using p-nitrophenyl phosphate as substrate at 8.7 x 10^-5 M up to 35 mins by spectrophotometry
[10] = biological target: Intestinal-type alkaline phosphatase (Bos taurus) (UniProt P19111); experiment: Inhibition of calf intestine alkaline phosphatase using p-nitrophenyl phosphate as substrate at 8.7 x 10^-5 M up to 35 mins by spectrophotometry
[11] = biological target: T1, Alkaline phosphatase, tissue-nonspecific isozyme (Homo sapiens); experiment: Inhibition of human serum containing 8% liver alkaline phosphatase using p-nitrophenyl phosphate as substrate at 8.7 x 10^-5 M up to 35 mins by spectrophotometry
Bos taurus = organism: Bos taurus; experiment: Inhibition of bovine placenta alkaline phosphatase using p-nitrophenyl phosphate as substrate at 8.7 x 10^-5 M up to 35 mins by spectrophotometry
[12] = biological target: T1, Alkaline phosphatase, tissue-nonspecific isozyme (Homo sapiens); experiment: Inhibition of human serum containing 86% liver alkaline phosphatase using p-nitrophenyl phosphate as substrate at 8.7 x 10^-5 M up to 35 mins by spectrophotometry

Sequence of Alkaline phosphatase, placental type (Homo sapiens) (P05187 whole entry): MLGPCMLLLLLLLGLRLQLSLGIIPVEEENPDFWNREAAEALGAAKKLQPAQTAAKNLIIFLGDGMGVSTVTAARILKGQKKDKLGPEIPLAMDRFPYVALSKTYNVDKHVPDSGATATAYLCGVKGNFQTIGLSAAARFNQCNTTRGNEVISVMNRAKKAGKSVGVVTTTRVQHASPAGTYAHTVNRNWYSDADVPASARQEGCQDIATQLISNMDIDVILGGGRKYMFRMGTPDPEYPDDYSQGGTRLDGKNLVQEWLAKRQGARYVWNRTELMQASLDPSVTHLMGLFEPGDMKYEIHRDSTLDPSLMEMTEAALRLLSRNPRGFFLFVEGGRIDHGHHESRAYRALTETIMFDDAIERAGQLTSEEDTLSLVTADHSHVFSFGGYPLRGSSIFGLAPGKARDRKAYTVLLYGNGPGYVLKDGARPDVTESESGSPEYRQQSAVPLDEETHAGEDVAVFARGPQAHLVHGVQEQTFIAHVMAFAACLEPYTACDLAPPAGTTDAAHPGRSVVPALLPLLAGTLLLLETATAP
Sequence of Intestinal-type alkaline phosphatase (Bos taurus) (P19111 20-506 limits assumed): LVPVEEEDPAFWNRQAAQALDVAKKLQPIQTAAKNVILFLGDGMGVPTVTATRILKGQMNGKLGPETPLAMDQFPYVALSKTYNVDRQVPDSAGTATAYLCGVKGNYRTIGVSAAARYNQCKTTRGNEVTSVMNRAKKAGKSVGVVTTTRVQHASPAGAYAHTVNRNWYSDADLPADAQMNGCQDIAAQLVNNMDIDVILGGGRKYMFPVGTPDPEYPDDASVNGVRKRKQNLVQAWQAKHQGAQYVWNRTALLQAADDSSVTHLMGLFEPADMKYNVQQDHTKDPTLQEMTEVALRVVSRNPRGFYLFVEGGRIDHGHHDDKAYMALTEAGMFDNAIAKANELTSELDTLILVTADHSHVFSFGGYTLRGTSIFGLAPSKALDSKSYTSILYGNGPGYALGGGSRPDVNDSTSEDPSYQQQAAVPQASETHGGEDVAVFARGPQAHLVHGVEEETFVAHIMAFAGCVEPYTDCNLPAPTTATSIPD
Sequence of Intestinal-type alkaline phosphatase (Homo sapiens) (P09923 20-503 limits assumed): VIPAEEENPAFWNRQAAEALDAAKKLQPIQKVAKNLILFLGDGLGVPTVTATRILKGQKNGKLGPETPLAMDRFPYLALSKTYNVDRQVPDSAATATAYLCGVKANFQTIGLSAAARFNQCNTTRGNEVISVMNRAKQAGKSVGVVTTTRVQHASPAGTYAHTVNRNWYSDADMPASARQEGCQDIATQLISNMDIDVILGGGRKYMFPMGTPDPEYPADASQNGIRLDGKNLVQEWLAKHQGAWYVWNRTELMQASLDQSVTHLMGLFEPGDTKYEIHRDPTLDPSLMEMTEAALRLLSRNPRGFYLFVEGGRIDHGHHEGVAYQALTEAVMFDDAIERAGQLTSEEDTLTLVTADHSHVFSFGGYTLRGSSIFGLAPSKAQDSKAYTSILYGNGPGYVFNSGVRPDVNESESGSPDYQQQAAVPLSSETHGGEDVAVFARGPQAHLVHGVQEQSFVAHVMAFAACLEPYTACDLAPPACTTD

SMILES | inhibition [1] | inhibition [2] | inhibition [3] | inhibition [4] | inhibition [5] | inhibition [6] | inhibition [7] | inhibition [8] | inhibition [9] | inhibition [10] | inhibition [11] | inhibition (Bos taurus) | inhibition [12]
c1ccc([C@@H]2CN3CC[Se]C3=N2)cc1 | inactive | inactive | inactive | inactive | inactive | inactive | inactive | inactive | inactive | inactive | inactive | inactive | inactive
c1ccc([C@H]2CN3CC[Se]C3=N2)cc1 | 70% | 76% | 70% | 0% | 70% | 78% | 78% | 80% | 63% | 10% | 80% | 78% | 63%
c1ccc([C@@H]2CN3CCSC3=N2)cc1 (stereo in doubt; (+)) | inactive | inactive | inactive | inactive | inactive | inactive | inactive | inactive | inactive | inactive | inactive | inactive | inactive
c1ccc([C@@H]2CN3CCSC3=N2)cc1 (stereo in doubt; (-)) | 65% | 67% | 65% | 0% | 65% | 71% | 71% | 76% | 56% | 10% | 76% | 75% | 56%
